Results on eleven compounds are retold here after US6022696A, “Methods of identifying agonists or antagonists of angiotensin IV” (Washington State University Research Foundation, priority 1998, dated 2000).

The nature of data set [1]: Stability of angiotensin peptides in binding assay buffer / assay conditions. It counts as physicochemical.
The target of data set [2] is T1, AT1 receptor (Bos taurus, UniProt P25104).
T1 construct: from tissue; host or cells: bovine adrenal cortex membranes
T1 sequence (P25104 1-359): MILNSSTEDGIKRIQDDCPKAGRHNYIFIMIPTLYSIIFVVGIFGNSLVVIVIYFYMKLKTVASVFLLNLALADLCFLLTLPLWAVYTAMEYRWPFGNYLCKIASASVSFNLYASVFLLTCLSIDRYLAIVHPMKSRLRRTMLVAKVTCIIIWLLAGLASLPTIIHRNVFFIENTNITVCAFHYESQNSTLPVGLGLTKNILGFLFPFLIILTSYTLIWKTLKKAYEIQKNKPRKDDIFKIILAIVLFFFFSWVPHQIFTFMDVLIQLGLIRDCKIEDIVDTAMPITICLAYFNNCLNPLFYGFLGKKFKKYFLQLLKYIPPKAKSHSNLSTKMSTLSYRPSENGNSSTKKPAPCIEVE
It counts as binding, bovine.

For data set [3] the following is noted: arterial and venous blood in man; cited from earlier work.
The target in data set [4] is T2, AT4 receptor (Bos taurus, UniProt F1N1Q8).
T2 sequence (F1N1Q8 1-1022): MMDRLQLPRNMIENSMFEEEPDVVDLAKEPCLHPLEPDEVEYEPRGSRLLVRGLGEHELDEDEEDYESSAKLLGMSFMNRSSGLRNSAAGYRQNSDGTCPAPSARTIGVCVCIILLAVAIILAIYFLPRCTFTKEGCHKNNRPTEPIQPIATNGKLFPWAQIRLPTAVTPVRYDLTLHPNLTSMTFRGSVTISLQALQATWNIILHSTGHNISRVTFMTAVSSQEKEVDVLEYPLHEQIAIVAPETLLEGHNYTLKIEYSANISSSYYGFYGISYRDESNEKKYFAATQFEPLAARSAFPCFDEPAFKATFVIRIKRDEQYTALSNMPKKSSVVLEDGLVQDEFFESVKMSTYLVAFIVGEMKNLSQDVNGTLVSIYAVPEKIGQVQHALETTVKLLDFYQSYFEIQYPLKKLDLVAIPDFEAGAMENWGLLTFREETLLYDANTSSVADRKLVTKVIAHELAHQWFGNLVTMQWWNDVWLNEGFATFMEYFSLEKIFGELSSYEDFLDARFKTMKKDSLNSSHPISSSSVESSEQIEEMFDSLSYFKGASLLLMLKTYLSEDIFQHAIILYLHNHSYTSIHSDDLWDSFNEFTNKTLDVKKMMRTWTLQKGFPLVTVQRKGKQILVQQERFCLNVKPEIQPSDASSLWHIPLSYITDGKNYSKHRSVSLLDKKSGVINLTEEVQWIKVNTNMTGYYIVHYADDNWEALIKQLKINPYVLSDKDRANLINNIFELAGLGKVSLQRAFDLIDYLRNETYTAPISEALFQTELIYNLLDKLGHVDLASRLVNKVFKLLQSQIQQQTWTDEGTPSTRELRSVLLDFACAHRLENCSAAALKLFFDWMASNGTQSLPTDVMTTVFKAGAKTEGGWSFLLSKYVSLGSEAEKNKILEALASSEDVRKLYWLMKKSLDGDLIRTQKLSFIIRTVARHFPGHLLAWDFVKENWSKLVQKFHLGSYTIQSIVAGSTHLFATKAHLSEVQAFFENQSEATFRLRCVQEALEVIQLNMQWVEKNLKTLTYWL
Briefly: 125I-AIV binding and competition, bovine adrenal cortical membranes.

Data set [5] concerns the target T2, AT4 receptor. Briefly: 125I-AIV binding and competition, bovine coronary venular endothelial cell (CVEC) membranes.
The test system of data set [6] is rat kidney. Briefly: Renal cortical blood flow (laser doppler) after infusion into the renal artery. It counts as in vivo.
The format of data set [7] is in vitro ADME, rat. The conditions noted are these: for metabolic stability, in words: rat kidney membranes / homogenates.
For data set [8], the system named is vascular endothelial cells. The data set is described as follows: EDRF production in vascular endothelial cells. Format: cell-based. The method, then: Bovine aortic endothelial cells were grown at 37° C. in 35 mm culture plates under 5% CO2 in air in Dulbecco's Modified Eagle's Medium (DMEM) supplemented with 5 μg/ml insulin and 10% (v/v) newborn bovine serum (NBBS). The medium was aspirated 10-12 hours after seeding and replaced with serum-free medium. The medium was again aspirated 10-12 hours later and replaced with either test or control medium. Control medium was DMEM with 5 µg/ml insulin and 2%, 5%, or 10% (v/v) NBBS as indicated. […] The medium was changed every 48 h (i.e., with supportive DMEM medium for the remainder of the experiment).

The test system of data set [9] is rat. The data set is described as follows: Systemic arterial blood pressure during renal artery infusion.
For data set [10], the target named is T2, AT4 receptor. Briefly: 125I-AIV binding, bovine aortic endothelial cell (BAEC) membranes. Particulars: BAEC membranes preincubated 60 min at 22° C.
The target of data set [11] is T3, AT1 receptors (Rattus norvegicus, UniProt P25095).
T3 construct: membrane fractions from rat vascular smooth muscle cells (RVSMC); endogenous in cells; host or cells: rat vascular smooth muscle cell line WKY IV, passage #17, membrane preparation
T3 sequence (P25095 1-359): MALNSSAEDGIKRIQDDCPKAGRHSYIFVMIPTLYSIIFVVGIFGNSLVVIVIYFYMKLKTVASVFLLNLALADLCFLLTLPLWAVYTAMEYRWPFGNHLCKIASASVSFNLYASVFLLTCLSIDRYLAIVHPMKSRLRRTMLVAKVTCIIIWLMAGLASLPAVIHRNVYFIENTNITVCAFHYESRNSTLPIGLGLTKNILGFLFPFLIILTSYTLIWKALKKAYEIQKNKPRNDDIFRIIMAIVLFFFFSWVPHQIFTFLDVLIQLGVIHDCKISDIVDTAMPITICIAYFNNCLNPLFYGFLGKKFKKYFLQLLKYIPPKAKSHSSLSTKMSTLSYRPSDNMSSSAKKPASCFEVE
The data set is described as follows: Effect of GTPγS on 125I-AII binding, rat vascular smooth muscle cell (RVSMC) membranes. The conditions noted are these: dose-dependent.

Setting [12] is: bovine adrenal cortical AT4 receptor.

Entries after “also recorded” stand apart in the source; their conditions may differ. Like-named read-outs stand apart in the source and are kept apart here. Non-standard residues stand in square brackets, D forms with d. Residues, ends and D or L forms follow the SMILES beside them. No end group written: not given here. NMeI = CC[C@H](C)[C@H](NC)C(=O)O

For “125I-AII: 125I-radiolabeled AII (DRVYIHPF; also: 125I radiolabel; UniProt P01019 25-32, looked up)”, the “overall hydrolysis under conditions of the assay” value in [1] (bovine adrenal cortical membrane binding assay) was “less than 2%”.

What is called Ki is the dissociation constant of the complex between target and ligand, obtained from inhibition or displacement. A lower Ki goes with a stronger hold on the target. One may read the half-life as the time in which the quantity being followed falls by half. As for `CC[C@H](C)[C@H](NC(=O)[C@@H](N)Cc1ccc(O)cc1)C(=O)N[C@@H](Cc1cnc[nH]1)C(=O)N1CCC[C@H]1C(=O)N[C@@H](Cc1ccccc1)C(=O)O` [AII(4-8)] (H-YIHPF-OH), the Ki in data set [2] was over 1000 nM. In addition, the half-life in data set [3] is 2.4 min.

Take `CC[C@H](C)[C@H](NC(=O)[C@H](Cc1ccc(O)cc1)NC(=O)[C@@H](NC(=O)[C@H](CCCNC(=N)N)NC(=O)[C@@H](N)CC(=O)O)C(C)C)C(=O)N[C@@H](Cc1cnc[nH]1)C(=O)N1CCC[C@H]1C(=O)N[C@@H](Cc1ccccc1)C(=O)O` [AII, Asp1 Arg2 Val3 Tyr4 Ile5 His6 Pro7 Phe8, reference compound]: the half-life in data set [3] was 4.4 min.

Consider `CC[C@H](C)[C@H](NC(=O)[C@H](Cc1ccc(O)cc1)NC(=O)[C@@H](NC(=O)[C@@H](N)CCCNC(=N)N)C(C)C)C(=O)N[C@@H](Cc1c[nH]cn1)C(=O)N1CCC[C@H]1C(=O)N[C@@H](Cc1ccccc1)C(=O)O` [AIII, Arg1 Val2 Tyr3 Ile4 His5 Pro6 Phe7, reference compound], for which the “decrease in AT4 receptor binding affinity relative to AIV (or stated parent peptide)” value in [4] (setting [12]) was “about 52 fold”. Further, the “increase in Ki over AIV” value in data set [5] was 20 fold. For the same compound, in data set [1] (4 h at 37° C., reverse phase HPLC), the “hydrolysis in binding buffer” value is listed as “less than 10%”. The half-life in data set [3] was 2.0 min.

In the case of `CC[C@H](C)[C@H](NC(=O)[C@H](Cc1ccc(O)cc1)NC(=O)[C@@H](N)C(C)C)C(=O)N[C@@H](Cc1cnc[nH]1)C(=O)N1CCC[C@H]1C(=O)N[C@@H](Cc1ccccc1)C(=O)O` [AIV, Val1 Tyr2 Ile3 His4 Pro5 Phe6], the “change in renal cortical blood flow, in words” value in data set [6] (infusion into rat renal artery, 100 pmol/min where stated) was “profound and long-lasting increase in blood flow; also recorded: equally dramatic increase in flow”. Also, in data set [6] (judged from renal blood flow response compared with AIV), the “agonist / antagonist activity at the AT4 receptor” value is recorded as “full agonistic activity”. Besides, in data set [6] (preinfusion before the named agonist), the “effect of preinfusion on agonist-induced change in renal blood flow” value is given as “completely blocked the constrictive action of AII”. Further, the “metabolic stability, in words” value in data set [7] is “rapidly degraded”. In addition, in data set [8], the “production of endothelial cell relaxing factor (EDRF)” value is given as “stimulating production of endothelial cell relaxing factor (EDRF)”. The half-life in [3] is 1.9 min. In [9], the “effect on arterial blood pressure” value is recorded as “not accompanied by alterations in mean arterial pressure”.

In the case of `CC[C@H](C)[C@H](NC)C(=O)N[C@@H](Cc1ccc(O)cc1)C(=O)N[C@H](C(=O)N[C@@H](Cc1c[nH]cn1)C(=O)N1CCC[C@H]1C(=O)N[C@@H](Cc1ccccc1)C(=O)O)[C@@H](C)CC` [CH3--I1 YIHPF] (H-[NMeI]YIHPF-OH), the “decrease in AT4 receptor binding affinity relative to AIV (or stated parent peptide)” value in data set [4] (setting [12]) was 67 fold.

As a reminder, the Kd is the constant that tells how readily two partners part at equilibrium. Regarding `CC[C@H](C)[C@H](NC(=O)[C@H](Cc1ccc(O)cc1)NC(=O)[C@@H](N)CC(=O)O)C(=O)N[C@@H](Cc1c[nH]cn1)C(=O)N1CCC[C@H]1C(=O)N[C@@H](Cc1ccccc1)C(=O)O` [DYIHPF] (H-DYIHPF-OH), the Kd in data set [4] (read-out: Kd of analog for the AT4 receptor) was over 1000 nM.

As to `Nc1nc2c(ncn2[C@@H]2O[C@H](COP(=O)(O)OP(=O)(O)OP(O)(O)=S)[C@@H](O)[C@H]2O)c(=O)[nH]1` [GTPγS], the “effect on 125I-AIV binding to AT4 receptors” value in [4] is “not altered”; in data set [10], “no effect; also recorded: did not inhibit (or alter) binding”. For the same compound, the “effect on 125I-AII binding to AT1 receptors” value in [11] is recorded as “inhibited”.

For the compound `CC(C)[C@H](N)CN[C@@H](Cc1ccc(O)cc1)C(=O)N[C@H](CN[C@@H](Cc1c[nH]cn1)C(=O)N1CCC[C@H]1C(=O)N[C@@H](Cc1ccccc1)C(=O)O)C(C)C` [Val1 Val3 AIV, ^+ H3 N-Val(CH2 NH)Tyr-Val(CH2 NH)-His-Pro-Phe-COO--], the “metabolic stability, in words” value is listed as “totally resistant to enzymatic degradation” in data set [7] (listed as Val(I)Val(3) AIV) and “enhanced metabolic stability” in data set [7] (listed as divalinal AIV). In data set [7] (rat kidney membranes, room temperature, after 4 hr of incubation), this compound yielded a peptide remaining intact of 100%. For the same compound, the “effect on arterial blood pressure” value in data set [9] is “did not alter blood pressure or renal blood flow”.

The compound CGP42112A [reference compound] gave a Ki in data set [2] (bovine adrenal cortical membranes) of over 100000 nM.

As for “Phe2 Tyr6 AIV: positions of Phe and Tyr reversed, SEQ. ID. NO. 36 (VPIHYF)”, the “AT4 receptor binding affinity, in words” value in data set [4] (setting [12]) was “very low binding affinity”.
